According to patent US20020115853A1, “Benzimidazolones and analogues” (priority 1999, published 2002):
Where “and” joins values, the source holds several entries; their conditions need not be identical. Equal values may be shown once.

tested on: T47D cells; assay: T47D cell proliferation assay (BrdU incorporation); assay type: cell-based; conditions: Homo sapiens, agonist mode, reference progestins, read-out: Estimated EC50, BrdU incorporation, individual studies
Experimental: 1. T47D cell Proliferation Assay
The objective of this assay is the determination of progestational and antiprogestational potency by using a cell proliferation assay in T47D cells. A compound's effect on DNA synthesis in T47D cells is measured.
DMEM:F12 (1:1) (GIBCO, BRL) supplemented with 10% (v/v) fetal bovine serum (not heat-inactivated), 100 U/ml penicillin, […], and 2 mM GlutaMax (GIBCO, BRL). b. Treatment medium: Minimum Essential
Medium (MEM) (#51200-038GIBCO, BRL) phenol red-free supplemented with 0.5% charcoal stripped fetal bovine serum, 100 U/ml penicillin, […] streptomycin, and 2 mM GlutaMax (GIBCO, BRL).
Stock T47 D cells are maintained in growth medium. For BrdU incorporation assay, cells are plated in 96-well plates (Falcon, Becton Dickinson Labware) at 10,000 cells/well in growth medium. […]
At the end of BrdU labeling, the medium is removed and BrdU incorporation is measured using a cell proliferation ELISA kit (#RPN 250, Amersham Life Science) according to manufacturer's instructions. […] Then 25 μl of 1 M sulfuric acid is added to each well to stop color reaction and optical density is read in a plate reader at 450 nm within 5 min.
Square root-transformed data are used for analysis of variance and nonlinear dose response curve fitting for both agonist and antagonist modes. […] EC50 or IC50 values are calculated from the retransformed values. […]

| SMILES | EC50 [nM] |
| --- | --- |
| CC(=O)O[C@]1(C(C)=O)CC[C@H]2[C@@H]3C[C@H](C)C4=CC(=O)CC[C@]4(C)[C@H]3CC[C@@]21C [MPA, medroxyprogesterone acetate] | 0.019 |

tested on: rat uterine decidualization; assay: Rat decidualization assay; assay type: in vivo; conditions: ovariectomized rats, p.o., with progesterone 5.6 mg/kg
Experimental: 2. Rat Decidualization Assay
b. Animals (RACUC protocol #5002)
The animals are treated once daily for seven days.
Uteri are removed and trimmed of fat.
S f. Analysis of Results:
Body weight: Mean total animal body weight (default-kg)
Decidual response: [(D-C)/C]×100%

| SMILES | Estimated IC50, decrease in EC50 progesterone induced decidual response |
| --- | --- |
| CC#C[C@]1(O)CC[C@H]2[C@@H]3CCC4=CC(=O)CCC4=C3[C@@H](c3ccc(N(C)C)cc3)C[C@@]21C [RU486] | 0.21 mg/kg and 0.14 mg/kg |

tested on: not given; assay: not given; conditions: not given

| SMILES | melting point [°C] |
| --- | --- |
| CC(C)OC(=O)N1CC(=S)Nc2ccc(-c3cccc(Cl)c3)cc21 [Example 30, Isopropyl 7-(3-chlorophenyl)-3-thioxo-3,4-dihydroquinoxaline-1(2H)-carboxylate] | 208 to 212 |
| CCC1Sc2cc(-c3cccc([N+](=O)[O-])c3)ccc2NC1=O (stereo not drawn) [Compound B2, 2-Ethyl-7-(3-nitro-phenyl)-4H-benzo[1,4]thiazin-3-one] | 180 |
| O=c1[nH]c2ccc(-c3cccc([N+](=O)[O-])c3)cc2n1Cc1ccccc1 [Compound 2, 1-Benzyl-6-(3-nitro-phenyl)-1,3-dihydro-benzoimidazol-2-one] | 202 to 203 |
| O=c1[nH]c2ccc(-c3cccc([N+](=O)[O-])c3)cc2[nH]1 [Example 9, 5-(3-Nitro-phenyl)-1,3-dihydro-benzoimidazol-2-one] | 324 to 325 |
| O=[N+]([O-])c1cccc(-c2ccc3[nH]c(=S)n(Cc4ccccc4)c3c2)c1 [Example 25, 1-Benzyl-6-(3-nitrophenyl)-1,3-dihydro-2H-benzimidazole-2-thione] | 244 to 245 |
| O=c1[nH]c2ccc(-c3cccc(Cl)c3)cc2n1Cc1ccccc1 [Compound 1, 1-Benzyl-6-(3-chloro-phenyl)-1,3-dihydro-benzoimidazol-2-one] | 168 to 169 |
| CN1CC(=O)Nc2ccc(-c3cccc([N+](=O)[O-])c3)cc21 [Example 26, 6-(3-Nitro-phenyl)-4-methyl-3,4-dihydro-1H-quinoxalin-2-one] | 237 to 243 |
| O=C1CSc2cc(-c3cccc([N+](=O)[O-])c3)ccc2N1 [Compound B1, 7-(3-Nitro-phenyl)-4H-benzo[1,4]thiazin-3-one] | 290 to 292 |
| CC(C)N1CC(=O)Nc2ccc(-c3ccc(F)c(Cl)c3)cc21 [Compound C5, 6-(3-Chloro-4-fluoro-phenyl)-4-isopropyl-3,4-dihydro-1H-quinoxalin-2-one] | 208 to 213 |
| CC(C)N1CC(=O)Nc2ccc(-c3cc(F)cc(C#N)c3)cc21 [Example 20, 6-(3-Cyano-5-fluorophenyl)-4-isopropyl-3,4-dihydro-1H-quinoxalin-2-one] | 238 to 240 |
| CC1Nc2cc(-c3ccc(Cl)cc3)ccc2NC1=O (stereo not drawn) [Example 27, 6-(4-Chloro-phenyl)-3-methyl-3,4-dihydro-1H-quinoxalin-2-one] | 228 to 230 |
| O=C1CN(Cc2ccccc2)c2cc(-c3cccc(Cl)c3)ccc2N1 [Example 28, 4-Benzyl-6-(3-chlorophenyl)-3,4-dihydroquinoxalin-2 (1H)-one] | 182 to 185 |
| O=c1[nH]c2ccc(-c3cccc(Cl)c3)cc2s1 [Example 13, 6-(3-Chloro-phenyl)-3H-benzothiazol-2-one] | 195 to 196 |
| CC(C)N1CC(=O)Nc2ccc(-c3cccc(Cl)c3)cc21 [Compound C4, 6-(3-Chloro-phenyl)-4-isopropyl-3,4-dihydro-1H-quinoxalin-2-one] | 146 to 150 |
| Cn1c(=O)[nH]c2ccc(-c3cccc(Cl)c3)cc21 [Compound 3, 6-(3-chloro-phenyl)-1-methyl-1,3-dihydro-benzoimidazol-2-one] | 219 to 220 |
| S=c1[nH]c2ccc(-c3cccc(Cl)c3)cc2n1Cc1ccccc1 [Example 24, 1-Benzyl-6-(3-chlorophenyl)-1,3-dihydro-2H-benzimidazole-2-thione] | 211 to 212 |
| O=c1[nH]c2ccc(-c3cccc([N+](=O)[O-])c3)cc2o1 [Example 11, 6-(3-Nitro-phenyl)-3H-benzooxazol-2-one] | 280 to 281 |
| O=c1[nH]c2ccc(-c3cccc([N+](=O)[O-])c3)cc2s1 [Example 12, 6-(3-Nitro-phenyl)-3H-benzothiazol-2-one] | 276 to 277 |
| Cn1c(=O)[nH]c2ccc(-c3cccc([N+](=O)[O-])c3)cc21 [Compound 4, 1-Methyl-6-(3-nitro-phenyl)-1,3-dihydro-benzoimidazol-2-one] | 264 to 265 |
